Legend:
woolly cupgrass = assay: Test C pre-/postemergence test; assay type: in vivo, Eriochloa villosa; conditions: for Plant response rating, Cupgrass, Woolly: 31 g ai/ha, scale 0 to 100 (0 no effect, 100 complete control)
How it was run: (§1)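 Seeds were planted and treated preemergence with test chemical in a non-phytotoxic solvent mixture containing surfactant. Postemergence applications of the same formulation went onto plants 2 to 18 cm tall (1- to 4-leaf stage). A dash marks no test result.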

crabgrass = assay: Test C pre-/postemergence test; assay type: in vivo, Digitaria sanguinalis; conditions: for Plant response rating, Crabgrass, Large: 31 g ai/ha, scale 0 to 100 (0 no effect, 100 complete control)
How it was run: as §1

soybean = assay: Test C pre-/postemergence test; assay type: in vivo, Glycine max
How it was run: as §1

[1] = tested on: common (oilseed) sunflower; assay: Test C pre-/postemergence test; assay type: in vivo, Helianthus annuus; conditions: for Plant response rating, Sunflower: 31 g ai/ha, scale 0 to 100 (0 no effect, 100 complete control)
How it was run: as §1

barnyardgrass = assay: Test A pre-/postemergence greenhouse test; assay type: in vivo, Echinochloa crus-galli; conditions: for Plant response rating, Barnyardgrass: 0 to 100 scale where 0 is no effect and 100 is complete control; for Barnyardgrass plant response rating: 0 to 100 scale
How it was run: (§2)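 Herbicidal effect is a visual injury score given about ten days post-treatment by comparison with untreated controls. Preemergence plots received a directed spray onto sown loam–sand soil; postemergence plants, at the one- to two-leaf stage and 2–10 cm tall, were sprayed at the same time.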

Italian ryegrass = assay: Test C pre-/postemergence test; assay type: in vivo, Lolium multiflorum; conditions: for Plant response rating, Ryegrass, Italian: 31 g ai/ha, scale 0 to 100 (0 no effect, 100 complete control)
How it was run: as §1

corn = assay: Test C pre-/postemergence test; assay type: in vivo, Zea mays; conditions: for Plant response rating, Corn: 31 g ai/ha, scale 0 to 100 (0 no effect, 100 complete control)
How it was run: as §1

yellow nutsedge = assay: Test C pre-/postemergence test; assay type: in vivo, Cyperus esculentus; conditions: for Plant response rating, Nutsedge, Yellow: 31 g ai/ha, scale 0 to 100 (0 no effect, 100 complete control)
How it was run: as §1

green foxtail = assay: Test C pre-/postemergence test; assay type: in vivo, Setaria viridis; conditions: for Plant response rating, Foxtail, Green: 31 g ai/ha, scale 0 to 100 (0 no effect, 100 complete control)
How it was run: as §1

cocklebur = assay: Test C pre-/postemergence test; assay type: in vivo, Xanthium strumarium; conditions: for Plant response rating, Cocklebur: 31 g ai/ha, scale 0 to 100 (0 no effect, 100 complete control)
How it was run: as §1

blackgrass = assay: Test C pre-/postemergence test; assay type: in vivo, Alopecurus myosuroides; conditions: for Plant response rating, Blackgrass: 31 g ai/ha, scale 0 to 100 (0 no effect, 100 complete control)
How it was run: as §1

pigweed = assay: Test C pre-/postemergence test; assay type: in vivo, Amaranthus retroflexus; conditions: for Plant response rating, Pigweed: 31 g ai/ha, scale 0 to 100 (0 no effect, 100 complete control)
How it was run: as §1

morningglory [2] = assay: Test A pre-/postemergence greenhouse test; assay type: in vivo, Ipomoea spp.; conditions: for Plant response rating, Morningglory: 0 to 100 scale where 0 is no effect and 100 is complete control; for Morningglory plant response rating: 0 to 100 scale
How it was run: as §2

morningglory [3] = assay: Test C pre-/postemergence test; assay type: in vivo, Ipomoea coccinea; conditions: for Plant response rating, Morningglory: 31 g ai/ha, scale 0 to 100 (0 no effect, 100 complete control)
How it was run: as §1

umbrella sedge = assay: Test C flooded paddy test; assay type: in vivo, Cyperus difformis; conditions: Flood
How it was run: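 In-water treatment: compound dosed into 3 cm flood over soil, water level unchanged throughout. Controls run alongside; visual assessment at day 13–15.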

wheat = assay: Test C pre-/postemergence test; assay type: in vivo, Triticum aestivum; conditions: for Plant response rating, Wheat: 31 g ai/ha, scale 0 to 100 (0 no effect, 100 complete control)
How it was run: as §1

kochia = assay: Test C pre-/postemergence test; assay type: in vivo, Kochia scoparia; conditions: for Plant response rating, Kochia: 31 g ai/ha, scale 0 to 100 (0 no effect, 100 complete control)
How it was run: as §1

[4] = 62 g ai/ha, Preemergence, scale 0 to 100
[5] = 125 g ai/ha, preemergence, scale 0 (no effect) to 100 (complete control)
[6] = preemergence, 250 g ai/ha, scale 0 (no effect) to 100 (complete control)
[7] = Postemergence, 500 g ai/ha, 0 is no effect, 100 is complete control
[8] = Preemergence, 125 g ai/ha, 0 no effect, 100 complete control
[9] = 250 g ai/ha, scale 0 to 100, 0 no effect, 100 complete control, 13 to 15 days
[10] = Postemergence, 125 g ai/ha, 0 is no effect, 100 is complete control
[11] = preemergence, 125 g ai/ha, scale 0 (no effect) to 100 (complete control)

CCc1cc[n+]([O-])c(S(=O)(=O)Cc2c(C(F)(F)F)nn(C)c2OCC(F)(F)F)c1 [Compound 60]
Cupgrass, Woolly plant response rating (woolly cupgrass; [4]): 100 | Cupgrass, Woolly plant response rating (woolly cupgrass; [5]): 100 | Plant response rating, Cupgrass, Woolly (woolly cupgrass; Preemergence): 100 | Cupgrass, Woolly plant response rating (woolly cupgrass; [6]): 100 | Crabgrass, Large plant response rating (crabgrass; [4]): 100 | Crabgrass, Large plant response rating (crabgrass; [5]): 100 | Plant response rating, Crabgrass, Large (crabgrass; Preemergence): 100 | Crabgrass, Large plant response rating (crabgrass; [6]): 100 | Soybean plant response rating (soybean; [4]): 50 | Soybean plant response rating (soybean; [5]): 50 | Soybean plant response rating (soybean; [6]): 85 | Sunflower plant response rating [1, 4]: 55 | Sunflower plant response rating [1, 5]: 70 | Plant response rating, Sunflower ([1]; Preemergence): 40 | Sunflower plant response rating [1, 6]: 80 | Plant response rating, Barnyardgrass (barnyardgrass; Postemergence, 125 g ai/ha): 80 | Barnyardgrass plant response rating (barnyardgrass; [7]): 90 | Barnyardgrass plant response rating (barnyardgrass; [8]): 90 | Plant response rating, Barnyardgrass (barnyardgrass; Preemergence, 500 g ai/ha): 100 | Ryegrass, Italian plant response rating (Italian ryegrass; [4]): 75 | Ryegrass, Italian plant response rating (Italian ryegrass; [5]): 80 | Plant response rating, Ryegrass, Italian (Italian ryegrass; Preemergence): 20 | Ryegrass, Italian plant response rating (Italian ryegrass; [6]): 90 | Corn plant response rating (corn; [4]): 20 | Corn plant response rating (corn; [5]): 55 | Plant response rating, Corn (corn; Preemergence): 0 | Corn plant response rating (corn; [6]): 98 | Nutsedge, Yellow plant response rating (yellow nutsedge; [4]): 50 | Nutsedge, Yellow plant response rating (yellow nutsedge; [5]): 100 | Plant response rating, Nutsedge, Yellow (yellow nutsedge; Preemergence): 20 | Nutsedge, Yellow plant response rating (yellow nutsedge; [6]): 100 | Foxtail, Green plant response rating (green foxtail; [4]): 100 | Foxtail, Green plant response rating (green foxtail; [5]): 100 | Plant response rating, Foxtail, Green (green foxtail; Preemergence): 85 | Foxtail, Green plant response rating (green foxtail; [6]): 100 | Cocklebur plant response rating (cocklebur; [4]): 0 | Cocklebur plant response rating (cocklebur; [5]): 0 | Plant response rating, Cocklebur (cocklebur; Preemergence): 0 | Cocklebur plant response rating (cocklebur; [6]): 0 | Blackgrass plant response rating (blackgrass; [4]): 90 | Blackgrass plant response rating (blackgrass; [5]): 100 | Plant response rating, Blackgrass (blackgrass; Preemergence): 85 | Blackgrass plant response rating (blackgrass; [6]): 100 | Pigweed plant response rating (pigweed; [4]): 100 | Pigweed plant response rating (pigweed; [5]): 100 | Plant response rating, Pigweed (pigweed; Preemergence): 100 | Pigweed plant response rating (pigweed; [6]): 100 | Plant response rating, Morningglory (morningglory [2]; Postemergence, 125 g ai/ha): 50 | Morningglory plant response rating (morningglory [2]; [7]): 60 | Morningglory plant response rating (morningglory [2]; [8]): 70 | Plant response rating, Morningglory (morningglory [2]; Preemergence, 500 g ai/ha): 100 | Morningglory plant response rating (morningglory [3]; [4]): 90 | Morningglory plant response rating (morningglory [3]; [5]): 100 | Plant response rating, Morningglory (morningglory [3]; Preemergence): 50 | Morningglory plant response rating (morningglory [3]; [6]): 100 | Plant response rating, Sedge, Umbrella (umbrella sedge; 62 g ai/ha, scale 0 to 100 (0 no effect, 100 complete control)): 0 | Plant response rating, Sedge, Umbrella (umbrella sedge; [9]): 80 | Wheat plant response rating (wheat; [4]): 15 | Wheat plant response rating (wheat; [5]): 30 | Plant response rating, Wheat (wheat; Preemergence): 0 | Wheat plant response rating (wheat; [6]): 100 | Kochia plant response rating (kochia; [4]): 100 | Kochia plant response rating (kochia; [5]): 100 | Plant response rating, Kochia (kochia; Preemergence): 80 | Kochia plant response rating (kochia; [6]): 100

Cn1nc(C(F)(F)F)c(CS(=O)(=O)c2ccc(Cl)c[n+]2[O-])c1Cl [Compound 18]
Cupgrass, Woolly plant response rating (woolly cupgrass; [4]): 80 | Plant response rating, Cupgrass, Woolly (woolly cupgrass; Preemergence): 10 | Plant response rating (0 to 100), Cupgrass, Woolly (woolly cupgrass; Preemergence, 250 g ai/ha): 100 | Crabgrass, Large plant response rating (crabgrass; [4]): 100 | Plant response rating, Crabgrass, Large (crabgrass; Preemergence): 80 | Plant response rating (0 to 100), Crabgrass, Large (crabgrass; Preemergence, 250 g ai/ha): 100 | Soybean plant response rating (soybean; [4]): 0 | Plant response rating, Soybean (soybean; Preemergence, 31 g ai/ha, scale 0 to 100 (0 no effect, 100 complete control)): 0 | Sunflower plant response rating [1, 4]: 0 | Plant response rating, Sunflower ([1]; Preemergence): 0 | Barnyardgrass plant response rating (barnyardgrass; [10]): 60 | Barnyardgrass plant response rating (barnyardgrass; [7]): 80 | Barnyardgrass plant response rating (barnyardgrass; [8]): 90 | Plant response rating, Barnyardgrass (barnyardgrass; Preemergence, 500 g ai/ha): 100 | Ryegrass, Italian plant response rating (Italian ryegrass; [4]): 0 | Plant response rating, Ryegrass, Italian (Italian ryegrass; Preemergence): 0 | Corn plant response rating (corn; [4]): 0 | Plant response rating, Corn (corn; Preemergence): 0 | Plant response rating (0 to 100), Corn (corn; Preemergence, 250 g ai/ha): 15 | Corn plant response rating (corn; [11]): 0 | Nutsedge, Yellow plant response rating (yellow nutsedge; [4]): 0 | Plant response rating, Nutsedge, Yellow (yellow nutsedge; Preemergence): 0 | Plant response rating, Foxtail, Green (green foxtail; Preemergence): 20 | Plant response rating (0 to 100), Foxtail, Green (green foxtail; Preemergence, 250 g ai/ha): 100 | Cocklebur plant response rating (cocklebur; [4]): 0 | Plant response rating, Cocklebur (cocklebur; Preemergence): 0 | Plant response rating (0 to 100), Cocklebur (cocklebur; Preemergence, 250 g ai/ha): 0 | Cocklebur plant response rating (cocklebur; [11]): 0 | Blackgrass plant response rating (blackgrass; [4]): 0 | Plant response rating, Blackgrass (blackgrass; Preemergence): 0 | Plant response rating (0 to 100), Blackgrass (blackgrass; Preemergence, 250 g ai/ha): 98 | Blackgrass plant response rating (blackgrass; [11]): 98 | Pigweed plant response rating (pigweed; [4]): 100 | Plant response rating, Pigweed (pigweed; Preemergence): 100 | Morningglory plant response rating (morningglory [2]; [10]): 0 | Morningglory plant response rating (morningglory [2]; [7]): 20 | Morningglory plant response rating (morningglory [2]; [8]): 0 | Plant response rating, Morningglory (morningglory [2]; Preemergence, 500 g ai/ha): 20 | Morningglory plant response rating (morningglory [3]; [4]): 0 | Plant response rating, Morningglory (morningglory [3]; Preemergence): 0 | Plant response rating, Sedge, Umbrella (umbrella sedge; 31 g ai/ha, scale 0 to 100 (0 no effect, 100 complete control)): 0 | Plant response rating, Sedge, Umbrella (umbrella sedge; 62 g ai/ha, scale 0 to 100, 0 no effect, 100 complete control, 13 to 15 days): 0 | Plant response rating, Sedge, Umbrella (umbrella sedge; 125 g ai/ha, scale 0 to 100, 0 no effect, 100 complete control, 13 to 15 days): 80 | Plant response rating, Sedge, Umbrella (umbrella sedge; [9]): 85 | Wheat plant response rating (wheat; [4]): 0 | Plant response rating, Wheat (wheat; Preemergence): 0 | Kochia plant response rating (kochia; [4]): 0 | Plant response rating, Kochia (kochia; Preemergence): 0

Source: US20100298141A1, “SUBSTITUTED PYRIDINE N-OXIDE HERBICIDES” (E. I. DU PONT DE NEMOURS AND COMPANY, priority 2007, published 2010)
